Experimental data from patent US8461175B2, “1-pyrazolo[4,3-c]isoquinoline derivatives, preparation thereof and therapeutic use thereof” (Sanofi-Aventis, priority 2009, dated 2013).
pIC50: −log10 of the molar value.

Test system: HeLa Cells (ATCC CCL-2)
Assay: Determination of IC50 for HeLa cells, proliferation by 14C-thymidine incorporation
Type: cell-based
Conditions: total treatment 96 h
Procedure: Determination of IC50 for HeLa Cells (ATCC CCL-2)
This test is carried out using adherent tumour cell lines. Their proliferation is measured via the amount of ^14C-thymidine incorporated within the cells. These cells are placed in 96-well Cytostar plates with the culture medium and are incubated for 4 h at 37° C.-5% CO2. The products under test are then added and the plates are replaced in the incubator. ^14C-thymidine is added to the medium after 72 h of treatment and the cells are then incubated for 24 h. The incorporation of ^14C-thymidine is measured using a MicroBeta reader (Perkin Elmer) after these 24 h of “pulse”. The total time of treatment of the cells with the product under test is 96 h.
For each assay, the plates are prepared at the cell concentrations employed. The products are tested at 10 concentrations in duplicate. The first concentration is usually 10 μM, but it may vary, as may the degree of dilution, depending on the activity level of the products. The serial dilutions are made in pure DMSO and then each concentration is diluted in the culture medium. All of the products are tested in two independent assays.
• Dulbecco (Gibco 11960-044) • Inactivated foetal calf serum (FCS) (Gibco 10500-056) • Penicillin-Streptomycin-Glutamine (PSG) (Gibco 10378-016) • 96-well Cytostar plate (Amersham RPNQ0162) • DMSO (Sigma D2650) • ^14C-Thymidine (NEN NEC-568)

Row | Compound | pIC50 | pIC50 (Homo sapiens)
1 | CS(=O)(=O)N1CCC(Nc2n[nH]c3c2nc(-c2c(F)cccc2F)c2cc(CO)ccc23)CC1 [Example 3] | 6.61 | 
2 | N#Cc1ccc2c(c1)c(-c1c(F)cccc1F)nc1c(NC3CCN(S(N)(=O)=O)CC3)n[nH]c12 [Example 26, 4-{[7-cyano-5-(2,6-difluorophenyl)-1H-pyrazolo[4,3-c]isoquinolin-3-yl]amino}piperidine-1-sulphonamide] |  | 5.78
3 | NC(=O)c1ccc2c(c1)c(-c1c(F)cccc1F)nc1c(NC3CCN(S(N)(=O)=O)CC3)[nH]nc12 [Example 22, 5-(2,6-difluorophenyl)-3-[(1-sulphamoylpiperidin-4-yl)amino]-2H-pyrazolo[4,3-c]isoquinoline-7-carboxamide] |  | 6.39
4 | NC(=O)c1ccc2c(c1)c(-c1c(F)cccc1F)nc1c(NC3CCN(S(=O)(=O)C(F)(F)F)CC3)n[nH]c12 [Example 4, 5-(2,6-difluorophenyl)-3-{[1-(trifluoromethanesulphonyl)piperidin-4-yl]amino}-1H-pyrazolo[4,3-c]isoquinoline-7-carboxamide] |  | 6.10
5 | CCS(=O)(=O)N1CCC(Nc2n[nH]c3c2nc(-c2c(F)cccc2F)c2cc(C#N)ccc23)CC1 [Example 13, 5-(2,6-difluorophenyl)-3-([1-(ethylsulphonyl)piperidin-4-yl]amino}-1H-pyrazolo[4,3-c]isoquinoline-7-carbonitrile] |  | 6.02
6 | COC(=O)c1ccc2c(c1)c(-c1c(F)cccc1F)nc1c(NC3CCN(S(C)(=O)=O)CC3)n[nH]c12 [Example 8, Methyl 5-(2,6-difluorophenyl)-3-{[1-(methylsulphonyl)piperidin-4-yl]amino}-1H-pyrazolo[4,3-c]isoquinoline-7-carboxylate] |  | 5.14
7 | CCS(=O)(=O)N1CCC(Nc2n[nH]c3c2nc(-c2c(F)cccc2F)c2cc(C=NO)ccc23)CC1 [Example 20, 5-(2,6-difluorophenyl)-3-{[1-(ethylsulphonyl)piperidin-4-yl]amino}-1H-pyrazolo[4,3-c]isoquinoline-7-carbaldehyde oxime] |  | 6.86
8 | CS(=O)(=O)N1CCC(Nc2n[nH]c3c2nc(-c2c(F)cccc2F)c2cc(-c4cn[nH]c4)ccc23)CC1 [Example 24, 5-(2,6-difluorophenyl)-N-[1-(methylsulphonyl)piperidin-4-yl]-7-(1H-pyrazol-4-yl)-1H-pyrazolo[4,3-c]isoquinolin-3-amine] |  | 5.67
9 | CS(=O)(=O)N1CCC(Nc2n[nH]c3c2nc(-c2c(F)cccc2F)c2cc(C#N)ccc23)CC1 [Example 12, 5-(2,6-difluorophenyl)-3-{[1-(methylsulphonyl)piperidin-4-yl]amino}-1H-pyrazolo[4,3-c]isoquinoline-7-carbonitrile] |  | 6.05
10 | CS(=O)(=O)N1CCC(Nc2n[nH]c3c2nc(-c2c(F)cccc2F)c2cc(C(N)=S)ccc23)CC1 [Example 9, 5-(2,6-difluorophenyl)-3-{[1-(methylsulphonyl)piperidin-4-yl]amino}-1H-pyrazolo[4,3-c]isoquinoline-7-carbothioamide] |  | 6.22
11 | C=Cc1ccc2c(c1)c(-c1c(F)cccc1F)nc1c(NC3CCN(S(C)(=O)=O)CC3)n[nH]c12 [Example 5, 5-(2,6-difluorophenyl)-3-{[1-(methylsulphonyl)piperidin-4-yl]amino}-7-vinyl-1H-pyrazolo[4,3-c]isoquinoline] |  | 5.59
12 | CS(=O)(=O)N1CCC(Nc2n[nH]c3c2nc(-c2c(F)cccc2F)c2cc(F)ccc23)CC1 [Example 6, 5-(2,6-difluorophenyl)-7-fluoro-3-{[1-(methylsulphonyl)piperidin-4-yl]amino}-1H-pyrazolo[4,3-c]isoquinoline] |  | 6.05
13 | CCS(=O)(=O)N1CCC(Nc2n[nH]c3c2nc(-c2c(F)cccc2F)c2cc(CO)ccc23)CC1 [Example 21] | 6.47 | 
14 | NS(=O)(=O)N1CCC(Nc2n[nH]c3c2nc(-c2c(F)cccc2F)c2cc(CO)ccc23)CC1 [Example 27, 4-{[5-(2,6-difluorophenyl)-7-(hydroxymethyl)-1H-pyrazolo[4,3-c]isoquinolin-3-yl]amino}piperidine-1-sulphonamide] |  | 6.34
15 | NS(=O)(=O)N1CCC(Nc2n[nH]c3c2nc(-c2c(F)cccc2F)c2cc(F)ccc23)CC1 [Example 28, 4-{[5-(2,6-difluorophenyl)-7-fluoro-1H-pyrazolo[4,3-c]isoquinolin-3-yl]amino}piperidine-1-sulphonamide] |  | 6.64
16 | CCS(=O)(=O)N1CCC(Nc2n[nH]c3c2nc(-c2c(F)cccc2F)c2cc(C=O)ccc23)CC1 [Example 19, 5-(2,6-difluorophenyl)-3-{[1-(ethylsulphonyl)piperidin-4-yl]amino}-1H-pyrazolo[4,3-c]isoquinoline-7-carbaldehyde] |  | 6.35
17 | CS(=O)(=O)N1CCC(Nc2n[nH]c3c2nc(-c2c(F)cccc2F)c2cc(-c4cn[nH]n4)ccc23)CC1 [Example 25, 5-(2,6-difluorophenyl)-N-[1-(methylsulphonyl)piperidin-4-yl]-7-(2H-1,2,3-triazol-4-yl)-1H-pyrazolo[4,3-c]isoquinolin-3-amine] |  | 5.64
18 | NC(=O)c1ccc2c(c1)c(-c1c(F)cccc1F)nc1c(NC3CCN(S(=O)(=O)C4CC4)CC3)n[nH]c12 [Example 14, 5-(2,6-difluorophenyl)-3-{[1-(cyclopropylsulphonyl)piperidin-4-yl]amino}-1H-pyrazolo[4,3-c]isoquinoline-7-carboxamide] |  | 6.38
19 | CS(=O)(=O)N1CCC(Nc2n[nH]c3c2nc(-c2c(F)cccc2F)c2ccccc23)CC1 [Example 10] | 5.69 | 
20 | CS(=O)(=O)N1CCC(Nc2n[nH]c3c2nc(-c2c(F)cccc2F)c2cc(C=NO)ccc23)CC1 [Example 2, 5-(2,6-difluorophenyl)-3-{[1-(methylsulphonyl)piperidin-4-yl]amino}-1H-pyrazolo[4,3-c]isoquinoline-7-carbaldehyde oxime] |  | 7.00
21 | CS(=O)(=O)N1CCC(Nc2n[nH]c3c2nc(-c2c(F)cccc2F)c2cc(C(=N)NO)ccc23)CC1 [Example 16, 5-(2,6-difluorophenyl)-N-hydroxy-3-{[1-(methylsulphonyl)piperidin-4-yl]amino}-1H-pyrazolo[4,3-c]isoquinoline-7-carboximidamide] |  | 5.63
22 | CS(=O)(=O)N1CCC(Nc2n[nH]c3c2nc(-c2c(F)cccc2F)c2cc(CF)ccc23)CC1 [Example 17] | 6.58 | 
23 | CS(=O)(=O)N1CCC(Nc2n[nH]c3c2nc(-c2c(F)cccc2F)c2cc(C=O)ccc23)CC1 [Example 15, 5-(2,6-difluorophenyl)-3-{[1-(methylsulphonyl)piperidin-4-yl]amino}-1H-pyrazolo[4,3-c]isoquinoline-7-carbaldehyde] |  | 6.31
24 | CS(=O)(=O)N1CCC(Nc2n[nH]c3c2nc(-c2c(F)cccc2F)c2cc(C(N)=O)ccc23)CC1 [Example 1, 5-(2,6-difluorophenyl)-3-{[1-(methylsulphonyl)piperidin-4-yl]amino}-1H-pyrazolo[4,3-c]isoquinoline-7-carboxamide] |  | 6.59
25 | NS(=O)(=O)N1CCC(Nc2n[nH]c3c2nc(-c2c(F)cccc2F)c2cc(C=NO)ccc23)CC1 (mixture of isomers) [Example 23, 4-({5-(2,6-difluorophenyl)-7-[(E/Z)-(hydroxyimino)methyl]-1H-pyrazolo[4,3-c]isoquinolin-3-yl}amino)piperidine-1-sulphonamide] | 6.90 | 
26 | C#Cc1ccc2c(c1)c(-c1c(F)cccc1F)nc1c(NC3CCN(S(C)(=O)=O)CC3)n[nH]c12 [Example 7, 5-(2,6-difluorophenyl)-3-{[1-(methylsulphonyl)piperidin-4-yl]amino}-7-ethynyl-1H-pyrazolo[4,3-c]isoquinoline] |  | 5.82
27 | CCS(=O)(=O)N1CCC(Nc2n[nH]c3c2nc(-c2c(F)cccc2F)c2cc(C(N)=O)ccc23)CC1 [Example 18, 5-(2,6-difluorophenyl)-3-{[1-(ethylsulphonyl)piperidin-4-yl]amino}-1H-pyrazolo[4,3-c]isoquinolin-7-carboxamide] |  | 6.26
28 | N#Cc1ccc2c(c1)c(-c1c(F)cccc1F)nc1c(NC3CCN(S(=O)(=O)C4CC4)CC3)n[nH]c12 [Example 11, 5-(2,6-difluorophenyl)-3-{[1-(cyclopropylsulphonyl)piperidin-4-yl]amino}-1H-pyrazolo[4,3-c]isoquinoline-7-carbonitrile] |  | 6.04
